In patent US20240269170A1, “Treatment of Inflammatory Conditions or Diseases” (Queen Mary University of London, priority 2021, published 2024):

System: K/B×N serum induced arthritis in C57BL/6 mice
Experiment: Sustained K/B×N serum induced arthritis, MCTR3 given 10 days after disease onset
Assay type: in vivo, mouse
Protocol: (A-D) K/B×N serum (100 μL via intraperitoneal injection, i.p.) was administered to C57BL/6 mice on days 0, 2 and 8 to initiate and prolong inflammatory arthritis. Mice were treated 1 μg/mouse MCTR3 or vehicle (PBS+0.1% EtOH) on day 10, 12 and 14 via intravenous (i.v.) injection. Disease course was assessed by evaluating A) clinical scores and B) paw oedema daily. Results are mean±SEM, n=9 mice per group. Statistical differences were evaluated using a Two-Way ANOVA. Arrows denote days when MCTR3 was administered. (C,D) paws were harvested on day 25, and cells liberated from the joints and the expression of phenotypic markers was evaluated on joint macrophages using flow cytometry and PLS-DA. (C) scores plot with highlighted regions denoting the clusters representing cells from each group and (D) VIP scores for each of the markers evaluated. Each dot in the score plot represents a separate mouse. (E-H) Arthritis was induced in DBA/1 mice by administration of 10 μg G6PI in CFA on Day 0. On day 24, 26 and 28 (denoted in blue arrows), mice were administered 1 μg/mouse MCTR3 or vehicle (PBS+0.1% EtOH) i.v. and (E) clinical scores and (F) paw oedema were measured. Results are mean±SEM, n=mice 7 per group from 2 separate experiments. Statistical differences were evaluated using a Two-Way ANOVA. (G-H) paws were harvested on day 36, and cells liberated from the joints and the expression of phenotypic markers was evaluated on joint macrophages using flow cytometry and PLS-DA. (G) scores plot with highlighted regions denoting the clusters representing cells from each group and (H) VIP scores for each of the markers evaluated. Each dot in the score plot represents a separate mouse.
FIG. 2: MCTR3 promotes bone and cartilage repair. C57BL/6 mice were administered 100 μL K/B×N serum i.p. on day 0, 2 and 8. Mice were treated with 1 μg/mouse MCTR3 or vehicle (PBS+0.1% EtOH) i.v. on day 10, 12 and 14. Hind paws and blood were collected on day 25 and A) glycosaminoglycan content was evaluated using Safranin-O staining. (left and centre panels) Representative images from Safranin-O stained knee joints and (right panel) quantification of Safranin-O stained knee joints. Results are mean±SEM, n=8 per group. Statistical differences were evaluated using Mann-Whitney U test. B-D) Expression of collagen type 2 (Col 2) and collagen type X (Col X) was evaluated using immunohistochemistry. B) Representative images from immunofluorescent assessment of Col 2 and Col X expression, C) mean intensity of Col 2 and D) average number of cells expressing Col X. Results are mean±SEM, n=5 per group, statistical differences were evaluated using Mann-Whitney U test. E-I) microCT analysis was performed on ankle joints ex vivo to assess bone callus cover. D) Representative images of ankles from vehicle and MCTR3 treated mice, where red represents the callus area. F) Callus tissue volume, G) bone volume, H) bone surface and I) the ratio of bone surface to bone volume of the ankles from mice treated with either vehicle or MCTR3. Results are mean±SEM, n=8 per group from two separate experiments. Statistical differences were evaluated Mann-Whitney U test. J,K) Blood was collected at the end of the experiment and plasma PINP and CTX-I levels were assessed. Results are mean±SEM, n=5 for Vehicle and n=7 for MCTR3 groups. Statistical differences were evaluated Mann Whitney U test.
FIG. 8: MCTR3 decreased leukocyte infiltration and cartilage damage in arthritic mice. Related to FIG. 1. C57BL/6 mice were administered 100 μL K/B×N serum i.p. on day 0, 2 and 8. Mice were treated with 1 μg/mouse MCTR3 or vehicle i.v. (PBS+0.1% EtOH) on day 10, 12 and 14. Hind paws were collected on day 25, fixed and stained using H&E stain. (A) representative images (B) Pannus size (C) leukocyte infiltration and (D) cartilage damage were evaluated. Results are mean±SEM. n=5 mice per group. IFP=intrapatellar fat, M=meniscus, TB=Tibia, PF=Pannus formation, Red arrows denote leukocyte infiltration. […]

[1] = 1 μg/mouse i.v. on day 10, 12 and 14
[2] = 1 μg/mouse i.v. on day 10, 12 and 14, hind paws day 25
[3] = 1 μg/mouse i.v., ELISA, end of experiment
[4] = 1 μg/mouse i.v., ankle joints day 25, microCT
[5] = 1 μg/mouse i.v., day 25, flow cytometry, VIP score
[6] = 1 μg/mouse i.v., day 25, immunohistochemistry

CC/C=C\C/C=C\C[C@H](O)[C@@H](/C=C/C=C/C=C\C/C=C\CCC(=O)O)SC[C@H](N)C(=O)O [MCTR3, 13R-cysteinyl, 14S-hydroxy-4Z, 7Z, 9E, 11E, 13R, 14S, 16Z, 19Z-docosahexaenoic acid]
clinical scores [1]: significant reduction | joint oedema [1]: marked reduction | safranin O-staining in joints (glycosaminoglycan content) (1 μg/mouse i.v. on day 10, 12 and 14, day 25): significantly higher | cartilage damage (H&E) [2]: significantly reducing | leukocyte infiltration (H&E) [2]: significantly reducing | resolution interval (1 μg/mouse i.v. on day 10, 12 and 14, vehicle ~9 days): ~5 days | plasma CTX concentrations (bone resorption marker) [3]: significant reduction | plasma PINP levels (bone formation marker) [3]: similar | bone callus size (total volume and surface area occupied by the callus) [4]: smaller | surface to volume ratio in the callus [4]: significant increase | Arginase (Arg)-1 in joint macrophages [5]: upregulation | Interleukin (IL)-10 in joint macrophages [5]: upregulation | expression of collagen 2 in joints [6]: increase | expression of collagen X in joints [6]: increase
